From patent publication US9980928B2, “Hydroxy aliphatic substituted phenyl aminoalkyl ether derivatives” (PROUS INSTITUTE FOR BIOMEDICAL RESEARCH, S.A., priority 2012, dated 2018)
“Also recorded” adds a separate entry of the source.

Legend:
[1] = system: fmr1 KO mice and wild type mice; assay: Social behavior test in Fragile X (fmr1 KO) mouse model; format: in vivo; settings: 30 mg/kg i.p. acute
Method: FIG. 4A plots the time (s) that the test mouse devotes to exploring two cylinders: a first cylinder containing a familiar genotype-matched juvenile stimulus mouse and a second cylinder containing a novel stimulus mouse and the total time of exploration (both cylinders) during a 10 min session. FIG. 4B Plots the percentage of time spent near the two cylinders during the 10 min session. FIG. 4C plots the Discrimination index (time exploring the novel stimulus−time exploring the familiar stimulus/total time of exploration×100).
N=10-12 mice per group. Mice had received an acute i.p. injection of saline (WT 1st bar, fmr1 KO 3rd bar) or 30 mg/kg Example 2 (Wild Type 2nd bar, fmr1 KO 4th bar) 24 h before the session. Data are expressed as mean±S.E.M. Two way ANOVA Treatment effect Φ p<0.05, Genotype x Treatment interaction p<0.05, Bonferroni as post hoc ***p<0.001, **p<0.01, *p<0.05.
Example 2 effects on social disability in a model of Fmr1 KO was performed. Social behavior was examined on an open-field that consisted of an arena (70 cm long×70 cm wide×30 cm high) made of Plexiglas. An overhead camera connected to the video-tracking software SMART (Panlab, Spain) was used to monitor the animal's behavior. The experimental design included three sessions:
1) Habituation session Animals were habituated for 10 min to an arena containing two empty transparent cylinders (30 cm diameter×40 cm high) made of Plexiglas. The cylinders were perforated to have interaction points and were located on two corners of the open field. Time exploring the cylinders was registered along the 10 min duration. After the habituation session mice received an acute injection of either saline or Example 2 (30 mg/kg i.p.) and replaced on their cages. 2) Social interaction 24 h later, animals were replaced to the arena containing the two cylinders, one cylinder was empty and the other one contained a stranger individual (stimulus). The time exploring the two cylinders was registered for 10 minutes. The stimulus individual was always a juvenile mouse (less than two months of age), to avoid the group hierarchy and aggressiveness towards non familiar individuals that show adult male mice. In addition, the stimulus individual was genotype matched with the testing mouse. The position of the stimulus individual was counterbalanced between animals. After the sociability session mice received an acute injection of either saline or Example 2 (30 mg/kg i.p.). 3) Social recognition 24 h later, animals were replaced to the arena containing the two cylinders, one cylinder contained the same stimulus individual presented during the social interaction session (familiar) and the other contained a novel stimulus individual. Both stimuli were juvenile animals and genotype matched. The position of the familiar stimulus remained the same as it was in the social interaction session, and counterbalanced between animals. Once the subject mice finished the test they remained individually housed in a separate cage until the other cage partner finalized the test, to avoid exposition to olfactory cues from stimuli mice. In all cases, those mice from the same cage were never exposed to the same stimuli, either familiar or novel. The time exploring the two cylinders was registered for 10 minutes. The discrimination index was calculated as time exploring the novel stimulus mouse−time exploring the familiar stimulus mouse/total time of exploration×100. The arena and cylinders were deeply cleaned between animals to avoid olfactory cues. All measures of exploration were manually registered by the experimenter blind to genotype and treatment. Exploratory behavior was defined as the animal directing its nose towards the cylinder at a distance of <2 cm. A proximal zone of 14 cm from the cylinders was defined as interaction zone and the time spent in these zones was registered as index of exploratory behavior.

[2] = target: T1, Human dopamine transporters (Homo sapiens, UniProt Q01959); assay: Binding to the dopamine transporter ([125I]-RTI-55); settings: 10 μM; read-out: inhibitory effect on [125I]-RTI-55 binding
T1 construct: expressed in transfected cells; host or cells: CHO-K1 cells (membranes)
Method: Human dopamine transporters expressed in CHO—K1 cells are used in modified Tris-HCl buffer at pH 7.4. […] Non-specific binding is estimated in the presence of […] nomifensine.

p-ERK = assay: Western blot of p-ERK in mouse brain after i.p. administration; format: in vivo, mice; settings: 30 mg/kg i.p., hippocampus, 1 hour after administration; hydrochloride
Method: Acute biochemical neuronal changes in neurotrophin and synaptic plasticity signaling after the administration of the compounds to be tested may be studied by Western blot assessment of ERK, Akt, phospholipase C (PLC), Trk-B, […] and CAMK II phosphorylation assays in the hippocampus, striatum and cortex at 1 hour post-administration.
Two groups of animals were used: C57BL control mice and mice treated by i.p. administration of a dose of 30 mg/kg of the compound to be tested diluted in saline solution or control saline (n=6 per group).
Animals were sacrificed by cervical dislocation at the corresponding time and different brain regions were dissected (frontal cortex, striatum, hippocampus, cerebellum) after […] of having administered the compounds. […] The supernatants were collected and the protein concentration was measured using the Dc protein assay kit (Bio-Rad, Hercules, Calif., USA) read in a 96-well plate. […]
After primary antibody incubation, membranes were washed with TBS-T and incubated for 1 hour at room temperature with the appropriate horseradish peroxidase-conjugated secondary antibody (1:2000; Promega, Madison, Wis., USA), and the reaction was finally visualized with the Western Blotting Luminol Reagent (Santa Cruz Biotechnology, Santa Cruz, Calif., USA). Western blot replicates were scanned and quantified using a computer-assisted densitometric analysis.

T1 sequence (Q01959 whole entry): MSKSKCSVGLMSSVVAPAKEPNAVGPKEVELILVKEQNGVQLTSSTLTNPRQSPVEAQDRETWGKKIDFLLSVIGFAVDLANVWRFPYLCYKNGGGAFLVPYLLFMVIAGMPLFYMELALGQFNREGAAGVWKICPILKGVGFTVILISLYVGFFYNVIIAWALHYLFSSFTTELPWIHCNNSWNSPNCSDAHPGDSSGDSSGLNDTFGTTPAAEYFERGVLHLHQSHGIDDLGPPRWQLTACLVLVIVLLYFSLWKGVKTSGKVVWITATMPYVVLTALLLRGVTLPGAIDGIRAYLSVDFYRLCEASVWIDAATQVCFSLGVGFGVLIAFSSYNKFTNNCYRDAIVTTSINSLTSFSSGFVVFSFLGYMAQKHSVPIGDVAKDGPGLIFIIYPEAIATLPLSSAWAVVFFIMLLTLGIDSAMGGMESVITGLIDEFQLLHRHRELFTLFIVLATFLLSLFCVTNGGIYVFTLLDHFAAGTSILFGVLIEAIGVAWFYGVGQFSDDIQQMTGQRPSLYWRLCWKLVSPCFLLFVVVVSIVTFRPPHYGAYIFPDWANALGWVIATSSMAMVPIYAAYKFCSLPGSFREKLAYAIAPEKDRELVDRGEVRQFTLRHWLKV

Compound: CNCCC(Oc1ccc(CCO)cc1)c1ccccc1.Cl (single isomer, unassigned) [Example 2, 2-[4-[3-(Methylamino)-1-phenylpropoxy]phenyl]ethanol hydrochloride]
- time exploring the familiar stimulus (FIG. 4A) ([1]; WT and fmr1 KO mice): significantly reduced
- social behavior alteration / social abnormalities ([1]; fmr1 KO mice): completely restored
- time exploring the novel stimulus mouse ([1]; fmr1 KO mice): rose at levels comparable to those detected in wild type animals
- time spent near the familiar individual (FIG. 4B) ([1]; fmr1 KO mice): reducing
- time spent near the novel stimulus (FIG. 4B) ([1]; fmr1 KO mice): significantly increased
- social recognition ([1]; wild type mice): did not modify
- inhibition at 10 µM [2]: 88%
- p-ERK levels (ERK1/2 phosphorylation) (p-ERK): positive significant increase; also recorded: trend for an increase
